13 molecules from ChEMBL document CHEMBL1201862, “PubChem BioAssay data set” (2004) can be followed below.

Structures are written as SMILES.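 Method: 48-hour compound exposure of cells in 96-well plates, five concentrations, linear interpolation of endpoints. GI50 marks 50% less growth.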 Calls of active or inactive are those of the source. Rule as the data show it: active = GI50 up to about 1.1 µM and inactive = higher.

Some test systems named below: COLO 205; DMS-273; HCT-116; HL-60; LOX IMVI; LXFL 529; OVCAR-3; OVCAR-5; OVCAR-8; SF-268; SF-295; SF-539; SNB-19; UACC-62; BT-549; HCT-15; HOP-92; RXF 393; DLD-1; XF498.
What all share (assay): NCI-60 cell line screen, 48 h

As to `Oc1c(C(Nc2cccc3cccnc23)c2ccccc2)ccc2cccnc12` (centres undefined), the GI50 is 6.25 µM (inactive) with COLO 205; 5.16 µM (inactive) in the assay with DMS-273; 5.6 µM (inactive) with HCT-116; 2.2 µM (inactive) with HL-60; 3.94 µM (inactive) in the assay with LOX IMVI; 4.13 µM (inactive) in the assay on LXFL 529. Besides, the GI50 in the assay on OVCAR-3 was 5.77 µM (inactive); in the assay with OVCAR-5, 12.9 µM (inactive); with OVCAR-8 it was 3.72 µM (inactive); with SF-268, 4.21 µM (inactive); with SF-295 it was 3.87 µM (inactive); in the assay with SF-539, 3.65 µM (inactive). Also, the GI50 was 4.69 µM (inactive) with SNB-19 and 21.6 µM (inactive) with UACC-62.
In the case of `Cc1ccn2c(=O)cc(-c3ccccc3)nc2c1`, the GI50 in the assay with BT-549 is > 100 µM (inactive); with COLO 205 it was > 100 µM (inactive); in the assay with HCT-116, > 100 µM (inactive); in the assay on HCT-15, more than 100 µM; in the assay with HL-60 it was > 100 µM (inactive); with HOP-92 it was 74 µM (inactive). Moreover, the GI50 in the assay with OVCAR-3, in the assay with OVCAR-5, in the assay with OVCAR-8, in the assay with RXF 393, in the assay on SF-268 and in the assay with SF-295 was > 100 µM (inactive) each time. Also, the GI50 is > 100 µM (inactive) with SF-539, > 100 µM (inactive) with SNB-19 and 18.7 µM (inactive) in the assay with UACC-62.
As for `CC1=C[C@@H]2[C@@H](CC(CO)=C[C@H]3[C@@H]4C(C)(C)[C@]4(OCC(C)C)[C@H](OCC(C)C)[C@@H](C)[C@]23O)C1=O`, the GI50 in the assay with BT-549 is 1.14 µM (inactive); with COLO 205, 0.243 µM (active); in the assay on HCT-116, 2.04 µM (inactive); in the assay with HCT-15 it was 1.42 µM; in the assay on HL-60, 0.495 µM (active); with HOP-92, 1.44 µM (inactive). Moreover, the GI50 was 1.25 µM (inactive) in the assay on LOX IMVI; 2.17 µM (inactive) with OVCAR-3; 2.23 µM (inactive) in the assay with OVCAR-5; 1.73 µM (inactive) in the assay with OVCAR-8; 1.54 µM (inactive) in the assay with RXF 393; 3.43 µM (inactive) with SF-268. Besides, the GI50 in the assay on SF-295 is 0.92 µM (active); in the assay on SF-539, 0.975 µM (active); in the assay with SNB-19, > 6.01 µM (inactive); in the assay with UACC-62, 1.43 µM (inactive).
Consider `COC(=O)C(NC(=O)c1ccccc1)C(c1c(O)cc(O)cc1O)P(=O)(OC)OC` (centres undefined), for which the GI50 was > 100 µM (inactive) in the assay on COLO 205; > 100 µM (inactive) with DLD-1; 42.5 µM (inactive) in the assay on DMS-273; > 100 µM (inactive) in the assay on HCT-116; more than 100 µM in the assay with HCT-15; 74 µM (inactive) in the assay with HL-60. Further, the GI50 was > 100 µM (inactive) in the assay with HOP-92; > 100 µM (inactive) in the assay on LOX IMVI; 54 µM (inactive) in the assay with LXFL 529; > 100 µM (inactive) with OVCAR-5; > 100 µM (inactive) with OVCAR-8; > 100 µM (inactive) with SF-268. Also, the GI50 in the assay with SF-295 was > 100 µM (inactive); with SF-539, > 100 µM (inactive); with SNB-19 it was > 100 µM (inactive); in the assay with UACC-62, 6.73 µM (inactive); in the assay with XF498, > 100 µM (inactive).
In the case of `O=C1C[C@@H]2[C@@H](C=CC23CCCC3)N1O`, the GI50 is > 100 µM (inactive) in the assay with COLO 205; > 100 µM (inactive) in the assay with DLD-1; > 100 µM (inactive) in the assay on DMS-273; > 100 µM (inactive) in the assay on HCT-116; more than 100 µM with HCT-15; > 100 µM (inactive) with HL-60. In addition, the GI50 with LOX IMVI, in the assay with LXFL 529, in the assay on OVCAR-3, in the assay on OVCAR-5, in the assay on OVCAR-8 and in the assay with RXF 393 was > 100 µM (inactive) each time. Further, the GI50 in the assay on SF-268, in the assay on SF-295, in the assay on SF-539, in the assay on SNB-19 and in the assay with UACC-62 was > 100 µM (inactive) throughout.
For the molecule `O=S(=O)(N=S(c1ccccc1)c1ccccc1)c1ccccc1`, the GI50 with BT-549 was > 100 µM (inactive); in the assay on COLO 205 it was > 100 µM (inactive); in the assay with HCT-116, > 100 µM (inactive); with HCT-15, more than 100 µM; in the assay with HL-60, > 100 µM (inactive); with HOP-92, > 100 µM (inactive). Moreover, the GI50 with OVCAR-3, with OVCAR-5, in the assay with OVCAR-8, with RXF 393, in the assay on SF-268 and in the assay on SF-295 was > 100 µM (inactive) throughout. Besides, the GI50 with SF-539 and in the assay on SNB-19 was > 100 µM (inactive) each time.
On to `NC(CCCCO)C(=O)O` (centres undefined), for which the GI50 with BT-549 is > 100 µM (inactive); in the assay on COLO 205, > 100 µM (inactive); in the assay with HCT-15 it was more than 100 µM; in the assay on HL-60 it was > 100 µM (inactive); in the assay with HOP-92, > 100 µM (inactive); in the assay with LOX IMVI, > 100 µM (inactive). For the same molecule, the GI50 in the assay with OVCAR-3, in the assay with OVCAR-5, with OVCAR-8, in the assay on RXF 393, in the assay on SF-268 and with SF-295 was > 100 µM (inactive) throughout. For the same molecule, the GI50 with SNB-19 and in the assay on UACC-62 was > 100 µM (inactive) each time.
With `O=C(O)c1ccccc1CN1CCCC(C(=O)O)C1` (centres undefined), the GI50 in the assay with BT-549 is > 100 µM (inactive); with COLO 205, > 100 µM (inactive); in the assay on HCT-116, > 100 µM (inactive); in the assay on HCT-15, more than 100 µM; in the assay on HOP-92, > 100 µM (inactive); with LOX IMVI, > 100 µM (inactive). The GI50 in the assay with OVCAR-3, with OVCAR-5, with OVCAR-8, in the assay with RXF 393, in the assay with SF-268 and in the assay on SF-295 was > 100 µM (inactive) in each case. Also, the GI50 in the assay on SF-539, with SNB-19 and with UACC-62 was > 100 µM (inactive) each time.
Regarding `Cc1ccc(-c2n[nH]c(=O)n2/N=C\c2ccccc2)cc1`, the GI50 was 10.1 µM (inactive) in the assay on BT-549; 74.1 µM (inactive) in the assay on COLO 205; 37.5 µM (inactive) in the assay with HCT-116; 72.6 µM with HCT-15; 70.1 µM (inactive) in the assay with HL-60; 21 µM (inactive) with HOP-92. The GI50 in the assay on LOX IMVI is > 100 µM (inactive); in the assay with OVCAR-3, > 84.1 µM (inactive); in the assay on OVCAR-5, > 100 µM (inactive); in the assay with OVCAR-8 it was 53.1 µM (inactive); in the assay on RXF 393, 24.7 µM (inactive); in the assay on SF-268, 28.4 µM (inactive). Further, the GI50 in the assay on SF-295 was 28.2 µM (inactive); in the assay with SF-539, 76.2 µM (inactive); in the assay on SNB-19, 46.3 µM (inactive); with UACC-62, 46.8 µM (inactive).
Regarding `C=C1C(=O)O[C@@H]2[C@H](O)[C@@H](C)[C@@H]3C=CC(=O)[C@@]3(C)[C@H](OC(=O)C=C(C)C)[C@H]12`, the GI50 with COLO 205 is 0.49 µM (active); with DLD-1 it was 0.277 µM (active); with DMS-273, 1.48 µM (inactive); in the assay on HCT-116 it was 0.655 µM (active); in the assay on HCT-15, 0.242 µM; in the assay on HL-60, 0.2 µM (active). For the same molecule, the GI50 was 0.944 µM (active) in the assay on HOP-92; 0.457 µM (active) in the assay with LOX IMVI; 0.895 µM (active) with OVCAR-3; 2.52 µM (inactive) in the assay with OVCAR-5; 0.421 µM (active) with OVCAR-8; 0.916 µM (active) in the assay with SF-268. For the same molecule, the GI50 in the assay on SF-295 is 2.8 µM (inactive); with SF-539, 0.255 µM (active); in the assay with SNB-19, 5.55 µM (inactive); with UACC-62, 0.625 µM (active); in the assay with XF498, 1.24 µM (inactive).
In the case of `O=S(O)CCCCCSSSCCCCCS(=O)O`, the GI50 is 35.4 µM (inactive) with DLD-1; 15.5 µM (inactive) in the assay on HCT-116; 24.7 µM (inactive) in the assay on HL-60; 27.1 µM (inactive) in the assay with LOX IMVI; 11.4 µM (inactive) in the assay on LXFL 529; 20.2 µM (inactive) in the assay on OVCAR-3. Also, the GI50 in the assay on OVCAR-5 was 85.5 µM (inactive); with RXF 393, 14.4 µM (inactive); in the assay on SF-268, 26.9 µM (inactive); with SF-539 it was 84.3 µM (inactive); in the assay on SNB-19, > 100 µM (inactive); with UACC-62, 22.8 µM (inactive). Besides, the GI50 in the assay with XF498 is 5.32 µM (inactive).
Regarding `Nc1nc(=O)c2c([nH]1)NCC(CNc1ccc(C(=O)N[C@@H](CCC(=O)O)C(=O)O)cc1)N2C=O` (some centres undefined) [LEUCOVORIN CALCIUM], the GI50 was > 125 µM (inactive) in the assay on COLO 205; > 125 µM (inactive) in the assay with DLD-1; > 125 µM (inactive) in the assay on DMS-273; > 125 µM (inactive) in the assay with HCT-116; more than 125 µM with HCT-15; 39.5 µM (inactive) with HL-60. In addition, the GI50 in the assay with HOP-92 is > 125 µM (inactive); with LOX IMVI, > 125 µM (inactive); with OVCAR-3, > 125 µM (inactive); in the assay with OVCAR-5 it was > 95.3 µM (inactive); with OVCAR-8, 121 µM (inactive); with RXF 393 it was > 125 µM (inactive). For the same molecule, the GI50 with SF-268, with SF-295, in the assay on SF-539, in the assay on SNB-19 and in the assay with UACC-62 was > 125 µM (inactive) throughout.
For `CCCCCCCCCCCCCCCCCCOP(=O)([O-])OCC[N+](C)(C)C` [OCTADECYLPHOSPHONOCHOLINE], the GI50 in the assay with BT-549 is 1.22 µM (inactive); with COLO 205 it was 0.146 µM (active); in the assay with DLD-1 it was 4.7 µM (inactive); in the assay on DMS-273, 1.74 µM (inactive); in the assay on HCT-116 it was 0.826 µM (active); in the assay with HCT-15 it was 0.644 µM. In addition, the GI50 with HL-60 is 0.317 µM (active); in the assay with HOP-92 it was 0.33 µM (active); with LOX IMVI, 0.863 µM (active); with OVCAR-3 it was 0.877 µM (active); in the assay with OVCAR-5, 1.53 µM (inactive); in the assay with OVCAR-8 it was 1.02 µM (active). Moreover, the GI50 in the assay with RXF 393 was 2.45 µM (inactive); in the assay on SF-268 it was 0.807 µM (active); in the assay on SF-295, 0.736 µM (active); with SF-539, 1.2 µM (inactive); in the assay with SNB-19 it was 0.849 µM (active); in the assay with UACC-62, 4.4 µM (inactive). Further, the GI50 in the assay on XF498 was 12.4 µM (inactive).
